According to patent US7303770B2, “Cancer chemoprotective food products” (Johns Hopkins School of Medicine, priority 1997, dated 2007):

Tests used:
[1] = tested on: QR activity in Hepa 1c1c7 murine hepatoma cells; experiment: Inducer potential: QR induction in Hepa 1c1c7 microtiter bioassay, myrosinase-treated extracts; assay type: cell-based; conditions: ammonium salts of isolated peaks
Method: Inducer potential or Phase 2 enzyme-inducing potential is a measure of the combined amounts of inducer activity in plant tissue provided by isothiocyanates, plus glucosinolates that can be converted by myrosinase to isothiocyanates. Glucosinolates are not themselves inducers of mammalian Phase 2 enzymes, whereas isothiocyanates are inducers. Inducer potential therefore is defined herein as QR activity in murine 1c1c7 hepatoma cells incubated with myrosinase-treated extracts of the sprouts, seeds or other plant parts. In the present invention therefore inducer potential is measured by means of the murine hepatoma cell bioassay of QR activity in vitro as described above. Inducer potential is measured in Hepa 1c1c7 murine hepatoma cells grown in 96-well microtiter plates. […] Hepatoma cells are grown for 24 hours and a plant extract containing microgram quantities of fresh plant tissue is serially diluted across the microtiter plates into fresh culture medium containing 0.15 ml αMEM culture medium amended with 10% Fetal Calf Serum (FCS) and streptomycin and penicillin. […] QR activity (based on the formation of the blue-brown reduced tetrazolium dye) is measured with an optical microtiter plate scanner in cell lysates prepared in one plate, and related to its protein concentration. Quantitative information on specific activity of QR is obtained by computer analysis of absorbances. […]

[2] = tested on: QR activity in Hepa 1c1c7 murine hepatoma cells; experiment: Inducer activity: QR induction in Hepa 1c1c7 microtiter bioassay, extracts untreated with myrosinase; assay type: cell-based; conditions: without myrosinase hydrolysis
Method: Inducer activity or Phase 2 enzyme-inducing activity is a measure of the ability of a compound(s) to induce Phase 2 enzyme activity. In the present invention, inducer activity is measured by means of the murine hepatoma cell bioassay of QR activity in vitro. Inducer activity is defined herein as QR inducing activity in Hepa 1c1c7 cells (murine hepatoma cells) incubated with extracts of sprouts, seeds or other plant parts untreated with myrosinase. Inducer activity is measured in Hepa 1c1c7 murine hepatoma cells grown in 96-well microtiter plates. Typically 10,000 Hepa 1c1c7 cells are introduced into each well. Hepatoma cells are grown for 24 hours and a plant extract containing microgram quantities of fresh plant tissue is serially diluted across the microtiter plates into fresh culture medium containing 0.15 ml αMEM culture medium amended with 10% Fetal Calf Serum (FCS) and streptomycin and penicillin. The cells are further incubated for 48 hours. QR activity (based on the formation of the blue-brown reduced tetrazolium dye) is measured with an optical microtiter plate scanner in cell lysates prepared in one plate, and related to its protein concentration. Quantitative information on specific activity of QR is obtained by computer analysis of the absorbances. One unit of inducer activity is the amount that when added to a single microtiter well doubles the QR activity. […]

[3] = tested on: QR activity in Hepa 1c1c7 murine hepatoma cells; conditions: reported values, cited from earlier work

Row | Compound | Inducer potency after myrosinase hydrolysis [1] | Inducer activity of isolated PIC peaks [2] | Inducer potency corresponding to reported CD value ([3]; Hepa 1c1c7) | CD value (concentration required to double QR specific activity) ([3]; Hepa 1c1c7 murine hepatoma cells)
1 | C[S+]([O-])CCCC/C(=N\OS(=O)(=O)O)S[C@@H]1O[C@H](CO)[C@@H](O)[C@H](O)[C@H]1O (single isomer, unassigned; peak a) [Peak A, 4-methylsulfinylbutyl glucosinolate] | 36,100 units/μmol | no significant inducer activity | – | –
2 | CSCCCCC(=NOS(=O)(=O)O)S[C@@H]1O[C@H](CO)[C@@H](O)[C@H](O)[C@H]1O (single isomer, unassigned; peak c) [Peak C, 4-methythiobutyl glucosinolate] | 4,360 units/μmol | no significant inducer activity | – | –
3 | C[S+]([O-])CCCCN=C=S (stereo not drawn) [sulforaphane] | – | – | 33,333 units/μmol | 0.2 µM
